According to ChEMBL document CHEMBL1909046, “DrugMatrix in vitro pharmacology data”:

Legend:
[1] = DRUGMATRIX: Glutamate, NMDA, Agonism radioligand binding (ligand: [3H] CGP-39653); type: cell membranes, Rattus norvegicus, Wistar, Cerebral cortex, Membrane; conditions: Not Active = under 50% inhibition at 10 µM
Cytochrome P450 2E1 = Cytochrome P450 2E1 (Homo sapiens, UniProt P05181); conditions: bti-tn-5b1-4; further: in other assays of this panel Not Active means under 50% inhibition at 10 µM
[2] = DRUGMATRIX: Phosphodiesterase PDE3 enzyme inhibition (substrate: [3H]cAMP + cAMP); type: tissue-based, Homo sapiens; conditions: platelet, Not Active = under 50% inhibition at 10 µM
[3] = molecular target: 5-hydroxytryptamine receptor 2B (Homo sapiens, UniProt P41595); type: cell membranes, CHO-K1, Membrane; conditions: for Ki: read-out: Ki; on all read-outs here: in other assays of this panel Not Active means under 50% inhibition at 10 µM
[4] = DRUGMATRIX: Calcium Channel Type L, Phenylalkylamine radioligand binding (ligand: [3H] (-)-Desmethoxyverapamil (D-888)); type: cell membranes, Rattus norvegicus, Wistar, Brain, Membrane; conditions: Not Active = under 50% inhibition at 10 µM
[5] = molecular target: Voltage-gated inwardly rectifying potassium channel KCNH2 (Homo sapiens, UniProt Q12809); conditions: hek293; further: in other assays of this panel Not Active means under 50% inhibition at 10 µM
[6] = DRUGMATRIX: Glutamate, NMDA, Phencyclidine radioligand binding (ligand: [3H] TCP); type: cell membranes, Rattus norvegicus, Wistar, Cerebral cortex, Membrane; conditions: Not Active = under 50% inhibition at 10 µM

Sequence of Cytochrome P450 2E1 (P05181 whole entry): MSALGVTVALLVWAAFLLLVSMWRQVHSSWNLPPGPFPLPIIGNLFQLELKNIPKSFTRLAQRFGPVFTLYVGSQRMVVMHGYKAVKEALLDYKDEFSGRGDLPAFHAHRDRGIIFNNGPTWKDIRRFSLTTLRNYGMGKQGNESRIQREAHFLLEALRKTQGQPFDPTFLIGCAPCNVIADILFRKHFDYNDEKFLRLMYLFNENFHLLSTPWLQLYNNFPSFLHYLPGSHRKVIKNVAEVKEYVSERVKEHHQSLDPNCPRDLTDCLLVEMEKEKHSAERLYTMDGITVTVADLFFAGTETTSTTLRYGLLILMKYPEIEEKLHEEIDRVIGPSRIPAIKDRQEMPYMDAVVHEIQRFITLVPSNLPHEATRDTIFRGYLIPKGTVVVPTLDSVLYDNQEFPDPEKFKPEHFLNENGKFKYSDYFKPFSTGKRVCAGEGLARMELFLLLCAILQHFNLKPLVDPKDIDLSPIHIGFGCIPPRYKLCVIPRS
Sequence of 5-hydroxytryptamine receptor 2B (P41595 whole entry): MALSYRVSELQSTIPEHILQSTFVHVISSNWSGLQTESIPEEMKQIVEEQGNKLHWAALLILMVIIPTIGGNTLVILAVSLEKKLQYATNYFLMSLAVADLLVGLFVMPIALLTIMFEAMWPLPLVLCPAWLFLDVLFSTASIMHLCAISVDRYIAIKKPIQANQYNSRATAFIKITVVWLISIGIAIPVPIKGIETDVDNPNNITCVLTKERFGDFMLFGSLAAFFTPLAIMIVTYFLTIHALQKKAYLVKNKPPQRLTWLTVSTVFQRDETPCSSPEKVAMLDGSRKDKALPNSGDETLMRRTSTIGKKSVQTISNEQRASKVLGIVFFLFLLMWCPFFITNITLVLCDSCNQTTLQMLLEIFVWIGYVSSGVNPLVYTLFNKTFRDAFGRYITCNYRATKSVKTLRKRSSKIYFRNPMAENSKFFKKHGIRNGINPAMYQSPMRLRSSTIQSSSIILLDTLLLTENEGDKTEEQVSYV
Sequence of Voltage-gated inwardly rectifying potassium channel KCNH2 (Q12809 whole entry): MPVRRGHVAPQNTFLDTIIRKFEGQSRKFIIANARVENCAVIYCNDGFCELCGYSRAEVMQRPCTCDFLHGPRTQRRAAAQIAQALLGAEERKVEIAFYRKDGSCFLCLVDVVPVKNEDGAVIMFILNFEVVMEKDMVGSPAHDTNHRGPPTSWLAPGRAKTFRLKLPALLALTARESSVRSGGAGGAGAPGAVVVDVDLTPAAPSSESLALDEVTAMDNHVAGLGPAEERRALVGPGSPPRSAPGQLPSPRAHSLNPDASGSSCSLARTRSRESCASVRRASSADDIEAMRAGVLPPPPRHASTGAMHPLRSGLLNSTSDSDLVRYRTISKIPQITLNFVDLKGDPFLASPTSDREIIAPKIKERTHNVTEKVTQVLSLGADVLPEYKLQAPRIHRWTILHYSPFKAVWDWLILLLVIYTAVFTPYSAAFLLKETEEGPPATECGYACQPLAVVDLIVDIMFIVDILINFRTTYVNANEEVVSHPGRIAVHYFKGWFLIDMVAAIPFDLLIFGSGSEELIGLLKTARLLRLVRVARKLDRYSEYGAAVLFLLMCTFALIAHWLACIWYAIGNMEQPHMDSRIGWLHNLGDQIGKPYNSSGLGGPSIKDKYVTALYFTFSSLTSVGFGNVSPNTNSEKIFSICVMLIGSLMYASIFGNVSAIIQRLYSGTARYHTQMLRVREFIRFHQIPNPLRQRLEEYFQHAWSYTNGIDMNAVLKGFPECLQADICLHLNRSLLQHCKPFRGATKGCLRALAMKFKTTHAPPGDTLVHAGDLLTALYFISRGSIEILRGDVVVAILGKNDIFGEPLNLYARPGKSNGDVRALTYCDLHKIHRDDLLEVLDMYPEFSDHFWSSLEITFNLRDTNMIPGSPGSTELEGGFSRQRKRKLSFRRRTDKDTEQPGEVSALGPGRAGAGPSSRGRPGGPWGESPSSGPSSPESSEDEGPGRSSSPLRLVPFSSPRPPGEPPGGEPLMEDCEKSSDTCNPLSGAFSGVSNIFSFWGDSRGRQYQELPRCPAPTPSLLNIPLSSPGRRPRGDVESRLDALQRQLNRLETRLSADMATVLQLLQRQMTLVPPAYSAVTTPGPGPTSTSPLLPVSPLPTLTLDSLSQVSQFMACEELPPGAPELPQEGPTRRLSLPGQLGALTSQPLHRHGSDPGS

SMILES	IC50 [1]	Ki [1]	IC50 (Cytochrome P450 2E1)	Ki (Cytochrome P450 2E1)	IC50 [2]	Ki [2]	IC50 ([3]; cho-k1)	IC50 [4]	Ki [4]	IC50 [5]	Ki [5]	IC50 [6]	Ki [6]	IC50 ([3]; read-out: IC50) [µM]	Ki [3] [µM]	IC50 ([4]; read-out: IC50) [µM]	Ki ([4]; read-out: Ki) [µM]	IC50 ([2]; read-out: IC50) [µM]
Cn1c(=O)c2c(ncn2CC(O)CO)n(C)c1=O (configuration not stated) [DYPHYLLINE]	Not Active	Not Active	Not Active	Not Active	Not Active	Not Active	Not Active	Not Active	Not Active	Not Active	Not Active	Not Active	Not Active	–	–	–	–	–
O=C(O)c1cccnc1Nc1cccc(C(F)(F)F)c1 [NIFLUMIC ACID]	Not Active	Not Active	Not Active	Not Active	Not Active	Not Active	Not Active	Not Active	Not Active	Not Active	Not Active	Not Active	Not Active	–	–	–	–	–
CC(C)c1cccc(C(C)C)c1O [PROPOFOL]	Not Active	Not Active	–	–	Not Active	Not Active	–	Not Active	Not Active	Not Active	Not Active	Not Active	Not Active	5.5	3.5	–	–	–
COC(=O)Nc1nc2ccc(C(=O)c3cccs3)cc2[nH]1 [NOCODAZOLE]	Not Active	Not Active	Not Active	Not Active	Not Active	Not Active	–	Not Active	Not Active	Not Active	Not Active	Not Active	Not Active	20.2	12.8	–	–	–
N=C(N)NC(=O)Cc1c(Cl)cccc1Cl [GUANFACINE]	Not Active	Not Active	Not Active	Not Active	Not Active	Not Active	–	Not Active	Not Active	Not Active	Not Active	Not Active	Not Active	2.1	1.34	–	–	–
CC(C)NCC(O)COc1cccc2[nH]ccc12 (configuration not stated) [PINDOLOL]	Not Active	Not Active	–	–	Not Active	Not Active	Not Active	Not Active	Not Active	Not Active	Not Active	Not Active	Not Active	–	–	–	–	–
CC(=O)[C@@]1(O)CC[C@H]2[C@@H]3CCC4=CC(=O)CC[C@]4(C)[C@H]3CC[C@@]21C [HYDROXYPROGESTERONE]	Not Active	Not Active	–	–	Not Active	Not Active	Not Active	Not Active	Not Active	Not Active	Not Active	Not Active	Not Active	–	–	–	–	–
CCN(CC)CCOCCC1=CCC2CC1C2(C)C (configuration not stated) [MYRTECAINE]	Not Active	Not Active	Not Active	Not Active	Not Active	Not Active	Not Active	Not Active	Not Active	–	–	Not Active	Not Active	–	–	–	–	–
COc1cc([C@@H]2c3cc4c(cc3[C@@H](O[C@@H]3O[C@@H]5CO[C@@H](C)O[C@H]5[C@H](O)[C@H]3O)[C@H]3COC(=O)[C@H]23)OCO4)cc(OC)c1O [ETOPOSIDE]	Not Active	Not Active	–	–	Not Active	Not Active	Not Active	Not Active	Not Active	Not Active	Not Active	Not Active	Not Active	–	–	–	–	–
CC(C)=CCC/C(C)=C/CO [GERANIOL]	Not Active	Not Active	–	–	Not Active	Not Active	Not Active	Not Active	Not Active	Not Active	Not Active	Not Active	Not Active	–	–	–	–	–
CCCNCC(O)COc1ccccc1C(=O)CCc1ccccc1 (configuration not stated) [PROPAFENONE]	Not Active	Not Active	Not Active	Not Active	Not Active	Not Active	–	–	–	–	–	Not Active	Not Active	–	–	1.74	1.7	–
NCCCC(O)(P(=O)(O)O)P(=O)(O)O [ALENDRONIC ACID]	Not Active	Not Active	Not Active	Not Active	Not Active	Not Active	Not Active	Not Active	Not Active	–	–	Not Active	Not Active	–	–	–	–	–
COc1ccc2c3c1O[C@H]1C[C@@H](O)C=C[C@@]31CCN(C)C2 [GALANTAMINE]	Not Active	Not Active	–	–	Not Active	Not Active	Not Active	Not Active	Not Active	Not Active	Not Active	Not Active	Not Active	–	–	–	–	–
CC[C@H]1CN2CCc3cc(OC)c(OC)cc3[C@@H]2C[C@@H]1C[C@H]1NCCc2cc(OC)c(OC)cc21 [EMETINE]	Not Active	Not Active	Not Active	Not Active	Not Active	Not Active	Not Active	Not Active	Not Active	–	–	Not Active	Not Active	–	–	–	–	–
COc1cc(N)c(Cl)cc1C(=O)NC1CCN(CCCOc2ccc(F)cc2)CC1OC (configuration not stated) [CISAPRIDE]	Not Active	Not Active	Not Active	Not Active	Not Active	Not Active	–	–	–	–	–	Not Active	Not Active	–	–	0.53	0.515	–
CC1(C)S[C@@H]2[C@H](NC(=O)[C@H](N)c3ccccc3)C(=O)N2[C@H]1C(=O)O [AMPICILLIN]	Not Active	Not Active	Not Active	Not Active	Not Active	Not Active	Not Active	Not Active	Not Active	–	–	Not Active	Not Active	–	–	–	–	–
COc1cc2nc(N3CCN(C(=O)c4ccco4)CC3)nc(N)c2cc1OC [PRAZOSIN]	Not Active	Not Active	Not Active	Not Active	Not Active	Not Active	–	Not Active	Not Active	–	–	Not Active	Not Active	4.12	2.62	–	–	–
CN1[C@@H]2CC[C@H]1C[C@@H](OC(=O)C(CO)c1ccccc1)C2 (some centres not stated) [ATROPINE]	Not Active	Not Active	Not Active	Not Active	Not Active	Not Active	Not Active	–	–	–	–	Not Active	Not Active	–	–	–	–	–
Oc1c(Cl)cc(Cl)c(Cl)c1Cc1c(O)c(Cl)cc(Cl)c1Cl [HEXACHLOROPHENE]	Not Active	Not Active	Not Active	Not Active	–	–	–	Not Active	Not Active	Not Active	Not Active	Not Active	Not Active	–	–	–	–	1.85
